Usually IC50 stands for the concentration that inhibits the measured activity by half. Lower therefore signals inhibition by little substance.

The structures appear in SMILES notation. Bounds are passed on as bounds.

This assay concerns SK-HEP1. Put plainly: Cytotoxicity against human SK-Hep1 cells by MTT assay. In kind it is functional, cell-based. In general terms: Tetrazolium assays rely on reduction of a dye to a coloured formazan, in cell work by metabolically active cells.
Consider `COc1cc([C@@H]2c3cc4c(cc3[C@@H](O[C@@H]3O[C@@H]5CO[C@@H](C)O[C@H]5[C@H](O)[C@H]3O)[C@H]3COC(=O)[C@H]23)OCO4)cc(OC)c1O` [ETOPOSIDE], for which the concentration for half-maximal inhibition (IC50) was found to be 49.6 µM. With `CO[C@H]1C=C2[C@@H](CC[C@H](O)C2(C)C)[C@]2(C)CC[C@]3(C)[C@@H]([C@H](C)C/C=C/C(C)(C)OC)CC[C@@]3(C)[C@H]12` the figure was > 100 µM. With `C[C@H](C/C=C/C(C)(C)O)[C@H]1CC[C@@]2(C)[C@@H]3C=CC4=C(CC[C@H](O)C4(C)C)[C@]3(C)CC[C@]12C` the figure was > 100 µM; with `CO[C@H]1C=C2[C@@H](CC[C@H](O)C2(C)C)[C@]2(C)CC[C@]3(C)[C@@H]([C@H](C)C/C=C/C(C)(C)O)CC[C@@]3(C)[C@H]12`, > 100 µM. The same measure for `CC(C)=CC(=O)C[C@@H](C)[C@H]1CC[C@@]2(C)[C@@H]3C(=O)C=C4[C@@H](CCC(=O)C4(C)C)[C@]3(C)CC[C@]12C`: > 100 µM; for `CO[C@H]1C=C2[C@@H](CC[C@H](OC(C)=O)C2(C)C)[C@]2(C)CC[C@]3(C)[C@@H]([C@H](C)C/C=C/C(C)(C)O)CC[C@@]3(C)[C@H]12`: > 100 µM; for `COC(C)(C)/C=C/C[C@@H](C)[C@H]1CC[C@@]2(C)[C@@H]3[C@@H](O)C=C4[C@@H](CC[C@H](O)C4(C)C)[C@]3(C=O)CC[C@]12C`: 91.6 µM. Take `C[C@H](C/C=C/C(C)(C)O)[C@H]1CC[C@@]2(C)[C@@H]3[C@@H](O)C=C4[C@@H](CC[C@H](O)C4(C)C)[C@]3(C=O)CC[C@]12C`: 98.3 µM corresponded to half-maximal inhibition (IC50). The IC50 values of the last two molecules are within 1.5-fold of each other.

For the molecule `C[C@H](C/C=C/C(C)(C)O)[C@H]1CC[C@@]2(C)[C@@H]3[C@@H](O)C=C4[C@@H](CC[C@H](O)C4(C)C)[C@]3(C)CC[C@]12C`, the IC50 is > 100 µM.

Source of the values: ChEMBL document CHEMBL1155899, “Cucurbitane-type triterpenoids from the stems of momordica charantia” (J Nat Prod, 2008).
